The text below walks through data of ChEMBL document CHEMBL1130818, “High affinity, selective neurokinin 2 and neurokinin 3 receptor antagonists from a common structural template” (Bioorg Med Chem Lett, 1998).

The target of one test is Substance-P receptor (Homo sapiens, UniProt P25103). Kind of test: Compound was evaluated for affinity towards human Neurokinin NK1 receptor.
The next test has as its target T1, Neuromedin-K receptor (Homo sapiens, UniProt P29371).
T1 sequence (P29371 whole entry): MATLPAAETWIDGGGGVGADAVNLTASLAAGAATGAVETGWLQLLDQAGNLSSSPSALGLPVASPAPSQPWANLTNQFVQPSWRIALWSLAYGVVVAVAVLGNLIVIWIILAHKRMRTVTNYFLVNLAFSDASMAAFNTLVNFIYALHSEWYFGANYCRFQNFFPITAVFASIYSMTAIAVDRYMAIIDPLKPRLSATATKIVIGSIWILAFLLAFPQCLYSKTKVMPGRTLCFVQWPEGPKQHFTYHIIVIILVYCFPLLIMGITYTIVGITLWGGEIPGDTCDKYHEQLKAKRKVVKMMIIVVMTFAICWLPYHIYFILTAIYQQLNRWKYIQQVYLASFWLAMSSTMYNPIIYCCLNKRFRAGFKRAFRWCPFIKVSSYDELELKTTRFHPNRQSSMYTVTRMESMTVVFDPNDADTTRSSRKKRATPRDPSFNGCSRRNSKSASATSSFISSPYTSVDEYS
Description: Compound was evaluated for affinity towards human Neurokinin NK3 receptor.

The target in the next test is T2, Substance-K receptor (Homo sapiens, UniProt P21452).
T2 sequence (P21452 whole entry): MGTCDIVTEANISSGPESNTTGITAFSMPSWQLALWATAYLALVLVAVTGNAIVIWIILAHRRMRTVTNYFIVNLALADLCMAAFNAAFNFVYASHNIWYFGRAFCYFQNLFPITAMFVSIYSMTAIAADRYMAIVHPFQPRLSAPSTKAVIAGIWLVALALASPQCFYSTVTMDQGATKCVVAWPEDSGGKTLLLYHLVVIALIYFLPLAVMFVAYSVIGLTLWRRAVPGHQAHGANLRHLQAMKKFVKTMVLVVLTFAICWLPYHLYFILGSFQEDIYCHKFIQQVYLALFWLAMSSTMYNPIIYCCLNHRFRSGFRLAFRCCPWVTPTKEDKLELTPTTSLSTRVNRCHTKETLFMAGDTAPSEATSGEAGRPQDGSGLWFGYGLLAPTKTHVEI
Description: Compound was evaluated for affinity towards human Neurokinin NK2 receptor.

Broadly, the IC50 is the point on the concentration scale where inhibition reaches its midpoint. Lower therefore signals inhibition by little substance.

Sequence of Substance-P receptor (P25103 whole entry): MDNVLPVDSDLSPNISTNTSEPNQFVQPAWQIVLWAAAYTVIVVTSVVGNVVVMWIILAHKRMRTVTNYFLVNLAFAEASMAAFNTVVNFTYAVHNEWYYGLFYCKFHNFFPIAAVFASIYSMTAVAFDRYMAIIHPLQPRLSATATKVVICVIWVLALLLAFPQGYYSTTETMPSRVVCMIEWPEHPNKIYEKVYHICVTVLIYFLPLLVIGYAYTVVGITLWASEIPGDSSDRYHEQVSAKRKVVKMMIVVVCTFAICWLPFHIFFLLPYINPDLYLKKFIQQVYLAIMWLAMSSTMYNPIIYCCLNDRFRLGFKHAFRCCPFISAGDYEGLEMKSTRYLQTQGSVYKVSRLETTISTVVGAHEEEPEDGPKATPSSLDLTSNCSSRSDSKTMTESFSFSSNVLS

On to `O=C1CCC(CCCN2CCC(n3c(=O)[nH]c4ccccc43)CC2)(c2ccc(Cl)c(Cl)c2)CN1Cc1ccccc1` (configuration not stated), for which the IC50 against Substance-P receptor was found to be 0.743 µM; against Neuromedin-K receptor it was 0.539 µM; at Substance-K receptor, 0.0064 µM.
As to `O=C(c1ccccc1)N1CCCC(CCCN2CCC3(CCc4ccccc43)CC2)(c2ccc(Cl)c(Cl)c2)C1` (configuration not stated), the IC50 at Substance-P receptor came to 0.272 µM; against Neuromedin-K receptor it was 0.0026 µM; against Substance-K receptor it was 0.204 µM.
Regarding `CC(=O)C1(c2ccccc2)CCN(CCCC2(c3ccc(Cl)c(Cl)c3)CCC(=O)N(Cc3ccccc3)C2)CC1` (configuration not stated), the IC50 was 1.03 µM against Substance-P receptor, 0.019 µM against Neuromedin-K receptor and 0.0039 µM against Substance-K receptor.
Taken in the same sequence, the figures for `O=C(c1ccccc1)N1CCCC(CCCN2CCC3(CC2)CN(c2ccccc2)NC3=O)(c2ccc(Cl)c(Cl)c2)C1` (configuration not stated) were 0.108 µM, 0.0068 µM and 0.05 µM.
Taken in the same sequence, the figures for `CC(=O)C1(c2ccccc2)CCN(CCCC2(c3ccc(Cl)c(Cl)c3)CCCN(C(=O)c3ccccc3)C2)CC1` (configuration not stated) were 0.46 µM, 0.0015 µM and 0.389 µM.
Taken in the same sequence, the figures for `CS(=O)(=O)N1CC2(CCN(CCCC3(c4ccc(Cl)c(Cl)c4)CCC(=O)N(Cc4ccccc4)C3)CC2)c2ccccc21` (configuration not stated) were 0.763 µM, 0.025 µM and 0.0022 µM.
Turning to `O=C1CCC(CCCN2CCC3(CC2)CN(c2ccccc2)NC3=O)(c2ccc(Cl)c(Cl)c2)CN1Cc1ccccc1` (configuration not stated), the IC50 against Substance-P receptor was found to be 0.892 µM; on Neuromedin-K receptor it was 0.127 µM; at Substance-K receptor, 0.0025 µM.
Turning to `CS(=O)(=O)N1CC2(CCN(CCCC3(c4ccc(Cl)c(Cl)c4)CCCN(C(=O)c4ccccc4)C3)CC2)c2ccccc21` (configuration not stated), the IC50 at Substance-P receptor turned out to be 0.497 µM; against Neuromedin-K receptor, 0.0012 µM; on Substance-K receptor it was 0.177 µM.
As for `O=C(c1ccccc1)N1CCCC(CCCN2CCC(n3c(=O)[nH]c4ccccc43)CC2)(c2ccc(Cl)c(Cl)c2)C1` (configuration not stated), the IC50 worked out at 0.379 µM against Substance-P receptor, 0.0079 µM against Neuromedin-K receptor and 0.348 µM on Substance-K receptor.
